According to PubChem BioAssay (NCI):
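Each compound was tested at five concentrations against cells in 96-well plates for 48 hours. Here, GI50 denotes the concentration required for 50% inhibition of growth. The concentration for full growth arrest is given as TGI.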

Experiments:
Assay in all cases: inhibition of tumour cell growth, NCI panel, 48 h
[1] = tested on: M14 melanoma
[2] = tested on: OVCAR-3 ovarian
[3] = tested on: DU-145 prostate
[4] = tested on: HL-60(TB) leukemia
[5] = tested on: MCF7 breast
[6] = tested on: SW-620 colon
[7] = tested on: PC-3 prostate
[8] = tested on: HOP-92 NSCLC
[9] = tested on: MOLT-4 leukemia
[10] = tested on: SN12C renal

| SMILES | GI50 [1] | TGI [1] | GI50 [2] | TGI [2] | GI50 [3] | TGI [3] | GI50 [4] | TGI [4] | GI50 [5] | TGI [5] | GI50 [6] | TGI [6] | GI50 [7] | TGI [7] | GI50 [8] | TGI [8] | GI50 [9] | TGI [9] | GI50 [10] | TGI [10] |
| --- | --- | --- | --- | --- | --- | --- | --- | --- | --- | --- | --- | --- | --- | --- | --- | --- | --- | --- | --- | --- |
| CCCCCCCCCCCCSC1=C(Cl)C(=O)C(OC)=C(OC)C1=O | 2.53 µM | 18.4 µM | 1.39 µM | 18.3 µM | 11.2 µM | 31.5 µM | 0.0502 µM | 5.82 µM | 0.417 µM | 7.12 µM | 0.63 µM | 17.5 µM | 1.18 µM | 9.09 µM | 2.67 µM | 16.3 µM | 0.617 µM | 18.6 µM | 1.75 µM | 16.5 µM |
| O=C(/C(=C/c1ccc([N+](=O)[O-])cc1)SCc1ccc(Cl)cc1)c1ccc(F)cc1 | 3.38 µM | 16.1 µM | 2.2 µM | 5.13 µM | 13.8 µM | > 57.3 µM | 2.82 µM | 11.1 µM | 1.56 µM | 4.78 µM | 1.71 µM | 4.91 µM | 2.12 µM | 5.74 µM | 10.2 µM | 34 µM | 2.83 µM | > 100 µM | 2.4 µM | 7.43 µM |
| c1ccc2cc(NCNc3ccc4ccccc4c3)ccc2c1 |  | 29.1 µM |  | 29.2 µM |  | 27.4 µM |  | 3.79 µM |  | 25.6 µM |  | > 100 µM |  | > 58.3 µM |  | 26.6 µM |  | 29.9 µM |  | 25.8 µM |
| CCOC(=O)Nc1nc2ccc(Br)cc2s1 | > 50 µM | > 50 µM | > 50 µM | > 50 µM | > 50 µM | > 50 µM | > 50 µM | > 50 µM | > 50 µM | > 50 µM | > 50 µM | > 50 µM | > 50 µM | > 50 µM | > 50 µM | > 50 µM | > 50 µM | > 50 µM | > 50 µM | > 50 µM |
| CCCCCCn1c(-c2ccc(C(=O)O/N=C(\N)c3ccc4ccccc4c3)cc2)nc(-c2ccccc2)c1-c1ccccc1 | > 83.5 µM | > 100 µM | > 100 µM | > 100 µM | > 100 µM | > 100 µM | 1.33 µM | > 100 µM | 4.3 µM | > 100 µM | > 100 µM | > 100 µM | 7.32 µM | > 100 µM | 1.92 µM | 7.77 µM | > 100 µM | > 100 µM | > 100 µM | > 100 µM |
| Cc1ccc(-c2cc3c4c(nc5ccccc53)C(=O)c3cccnc3-c4n2)cc1 | 4.37 µM | 16.5 µM | 1.85 µM | > 50.1 µM | 11.9 µM | 24.5 µM | 1.35 µM | > 100 µM | 1.85 µM | 6.31 µM | 5.7 µM | > 51.1 µM | 17.3 µM | > 83.8 µM | 26.5 µM | > 100 µM | 0.583 µM | > 100 µM | 14.4 µM | 30 µM |
